Source: patent US10247722B2, “Use of compounds inhibiting apelin / APJ / GP130 signaling for treating cancer” (Centre National de la Recherche Scientifique (CNRS), priority 2014, dated 2019)
Entries after “also recorded” stand apart in the source; their conditions may differ. Positions of bridges follow the written chain, without caps; N, C: chain ends. No end group written: not given here.

Tests used:
[1] = system: patient-derived GSCs; experiment: Secondary neurosphere/tumoursphere formation, Sox2/Nestin expression and trypan blue viability of GSCs; type: cell-based, human; details: mitogen-free medium plus APJ agonist; ML233 1 mmol·l^1, 4 days (FIG. 13)
[2] = system: Akt/mTor pathway; experiment: Western blot of Akt/mTor pathway activation (pAkt, pS6) in GSCs; type: cell-based, human
Procedure: FIG. 4. […] Scale bar: 40 μm. Data represent mean+sem on n=3 experiments.
(§1) FIG. 9. […] GSCs were pre-treated with APJ antagonist (MM54, 2 μmol·l^1) 45 min prior EC-CM or Apelin (Apin, 1 μmol·l^−1, 7 min) and protein lysates were analysed by western-blots with the indicated antibodies. Controls include GSC grown in complete (NS) and mitogen-free media (MF). b. STAT3 reporter activity was measured in mock, APJ, Gp130 and APJ+Gp130-transfected HEK-293T and exposed for 6 h to MF and Apin, together with either DMSO or MM54. c. GSCs were exposed to NS, EC-CM and Apin in the presence of DMSO or MM54. Tumoursphere formation per field of view (TS/FOV) was also quantified. d. Nude mice were xenografted with GSCs and bi-weekly intraperitoneal administration of vehicle (PBS) or APJ antagonist (MM54, 20 μmol·l^−1) started at week 4 (arrow). Tumour volume was measured weekly for 7 weeks. e. Frozen sections from GSC-xenografted tumours treated either with vehicle or MM54 were stained for blood vessels (PECAM), together with either Ki67 (proliferation marker or Nestin and nuclei. Percentage of dead cells was estimated by TUNEL. Quantification of both staining is shown. Data represent mean+sem on n=3 experiments. Two-way ANOVA: *P<0.05; **P<0.01.

[3] = system: STAT3; details: recombinant Apelin 1 μM
Procedure: A. Western-blot analysis for pY-STAT3, pS-STAT3 and Total STAT3 in GSC#1 treated with complete media (NS34), deprived medium (SF), endothelial cell-conditioned media (EC-CM), or SF supplemented with Apelin (1 μM), for the indicated times. B. GSC#1 received non-silencing siRNA (sic) or siRNA targeting APJ. GSC#1 were treated with EC-CM and analyzed by western-blots using the indicated antibodies (upper panel). Alternatively, GSC#1 received EC-CM prepared from non-silencing shRNA (shC) or shRNA targeting Apelin (lower panel). […] GSC#1 received non-silencing siRNA (siC) or siRNA targeting GP130, were stimulated with EC-CM three days later, and protein lysates were analyzed by western-blots, using the indicated antibodies. D. GSC#1 were pre-treated with GP130-blocking antibody 45 min prior EC-CM or Apelin stimulation and protein lysates were analyzed by western-blots. E. Neurosphere assay was conducted in GSC#1 treated with siRNA as in (C) or with GP130-blocking antibody as in (D).
Proteins were collected in TNT buffer (10 mM Tris-HCl pH 7.5, 150 mM NaCl, 1% Triton X100, 2 mM EDTA) plus protease inhibitors (Sigma), 200 mM NaF and 0.1 mM Na3VO4. Equal amounts of proteins (microBCA kit, Pierce) were separated with 4-12% Nupage gels (Invitrogen) and transferred onto PVDF membranes (Thermo Fisher Scientific). […]

[4] = system: patient-derived GSCs; experiment: Secondary neurosphere/tumoursphere formation, Sox2/Nestin expression and trypan blue viability of GSCs; type: cell-based, human
Procedure: as §1
FIG. 11. […] Apelin secretion was measured by EIA in positive templates (C+), mitogen-free media (MF), human brain endothelial cell (EC) and GSC conditioned media (CM). RT-PCR for Apelin and Actin is also shown for EC and GSC. b. Confocal analysis of Nestin (green), Sox2 (red) and nuclei (DAPI, blue) in GSC grown in complete media (NS), in MF, in EC-CM or MF containing only recombinant Apelin (Apin, 1 μmol·l^−1). Scale bar: 40 um. c-d. GSCs #1-16 were cultured in MF or Apin. Quantification of tumourspheres per field of view (TS/FOV) (c) and trypan blue exclusion quantification (Viable cells %) (d) was performed. e. EC received non-silencing RNA (siC) or Apin targeting siRNA (siApin). Apin extinction was checked by RT-PCR and enzyme immunoassay. f. GSCs were cultured with siC and siApin EC-CM, as prepared in (e). Confocal analysis was performed on Nestin (green), Sox2 (red) and DAPI (blue) co-staining. Scale bar: 40 μm. g-h. siC or siApin EC-CM treated GSCs were processed as in (c, d). i-k. GSCs were cultured with NS, MF, siC EC-CM and siApinEC-CM alone or plus Apin. Phase pictures are shown (i) Scale bar: 25 μm, TS/FOV and viable cells were also analysed (j, k). Data represent mean+sem on n=3 experiments. T-test: *P<0.05; **P<0.01; ***P<0.001.
GSCs were dissociated by up-and-down pipetting and cultured in a 48-well plate format. […] NS counts were blindly performed on five random fields of view (fov) and the mean of neurosphere/fov was calculated from 3 independent experiments. Statistical analyses were performed using 2-way Student's test (Excel Microsoft Office).

[5] = system: human GSCs implanted into immunocompromised mouse flanks; experiment: Subcutaneous GSC xenograft in nude mice, tumour growth and histology; type: in vivo
Procedure: (§2) FIG. 9. Pharmacological inhibition of APJ impairs tumour growth. a. GSCs were pre-treated with APJ antagonist (MM54, 2 μmol·l^1) 45 min prior EC-CM or Apelin (Apin, 1 μmol·l^−1, 7 min) and protein lysates were analysed by western-blots with the indicated antibodies. Controls include GSC grown in complete (NS) and mitogen-free media (MF). b. STAT3 reporter activity was measured in mock, APJ, Gp130 and APJ+Gp130-transfected HEK-293T and exposed for 6 h to MF and Apin, together with either DMSO or MM54. c. GSCs were exposed to NS, EC-CM and Apin in the presence of DMSO or MM54. Tumoursphere formation per field of view (TS/FOV) was also quantified. d. Nude mice were xenografted with GSCs and bi-weekly intraperitoneal administration of vehicle (PBS) or APJ antagonist (MM54, 20 μmol·l^−1) started at week 4 (arrow). Tumour volume was measured weekly for 7 weeks. e. Frozen sections from GSC-xenografted tumours treated either with vehicle or MM54 were stained for blood vessels (PECAM), together with either Ki67 (proliferation marker or Nestin and nuclei. Percentage of dead cells was estimated by TUNEL. Quantification of both staining is shown. Data represent mean+sem on n=3 experiments. Two-way ANOVA: *P<0.05; **P<0.01.
All animal studies were carried out according to French Ministry approved protocols (agreement number #00754.02), in compliance with the European Convention for the Protection of Vertebrate Animals used for Experimental and other Scientific Purposes (ETS 123). Six weeks old females BALB/c nude mice (Janvier) were subcutaneously injected with 1*10^6 cells in 100 μl 1:1 PBS and growth factors-free matrigel (Corning). For tumour initiation (FIG. 9), mice were examined weekly in the search for tumours and sacrificed 7 weeks after implantation. For pharmacological studies (FIG. 6), mice were treated twice per week with MNI54 or vehicle (DMSO) diluted in PBS (100 μl) (intraperitoneal injection for 7 weeks), once tumours were detected (4 weeks post-implantation).
Upon sacrifice, tumours were extracted, embedded in OCT (Tissue Tek) in biomoulds, frozen by immersion in dry ice-chilled isopentane for 1 min, and stored at −80° C. for further analysis.
For immunostaining, embedded OCT-tumours were cut in 7 μm sections using a CM350S Leica cryostat (Histology platform, Institut Cochin, Paris). […]
A minimum of 3 tumour sections per condition was used, with at least 5 different fields of view (fov) each. For blood vessel surface analysis, PECAM pixel intensity was calculated in each fov and an average+sem of the total fov was represented. Cell proliferation was assessed through the percentage of Ki67-positive cells normalized to the total cell number of cells in DAPI. Nestin positive cells were counted per fov.

[6] = system: STAT3; experiment: STAT3 luciferase reporter assay in HEK-293T co-expressing APJ and Gp130; type: cell-based, human; details: HEK-293T co-expressing APJ and Gp130, Apelin 6 h
Procedure: as §2, with “Nude mice were xenografted with GSCs and bi-weekly intraperitoneal administration of vehicle (PBS) or APJ antagonist (MM54, 20 μmol·l^−1) started at week 4 (arrow).” left out
HEK-293T cells were co-transfected with HA-APJ, GP130, STAT3 Luciferase Reporter Vector (Affymetrix) and Renilla (Promega). […] Then, cells were lysed and STAT3 luciferase activity was measured using the Dual-Luciferase Reporter Assay (Promega). […]

[7] = Toxicity observation in MM54-treated mice (body weight, heart/body weight ratio, heart anatomy); type: in vivo; details: ectopic tumour-bearing mice, bi-weekly over 7 weeks; sham-operated female nude mice
Procedure: FIG. 16. […] Gain weight was measured in ectopic tumour bearing mice that received bi-weekly treatment over 7 weeks. b-d. Female nude mice underwent intracranial implantation of PBS (sham surgery) and then received DMSO and MM54 17 days after PBS implantation. Body weight was monitored long the experiment (a). Heart/body weight ratios were calculated at the day of sacrifice (c). General anatomy of hearts from DMSO and MM54-treated mice using the Masson Trichrome staining (d).

[8] = system: mice intracranially implanted with GSCs; experiment: Orthotopic (intracranial) GSC #9 implantation in nude mice; type: in vivo
Procedure: FIG. 15. Anti-tumor effect of APJ inhibition. Nude mice were implanted with GSC #9 orthotopically (10^5 cells) and treated tri-weekly with intraperitoneal injection of vehicle (PBS) or APJ antagonist (MM54, 20 μmol·l^−, 4 mg/kg) starting at day 16 (arrow). Appearance of neurological symptoms (a) and weight at sacrifice (b) were monitored. Kaplan-Meier survival curve of GSC #9-bearing mice is shown (c). Data represent mean+sem of n=3 experiments. Two-way ANOVA: *P<0.05; **P<0.01.

[9] = intracranial GSC #9, intraperitoneal MM54 thrice a week (4 mg/kg) from day 16

## CC1=CC(=O)C(C2CCCCC2)=C/C1=N\OS(=O)(=O)c1ccccc1 [ML233]
[1]
  GSC survival: promote GSC survival; also recorded: promotes GSC survival through APJ/GP130

## Apelin
[2]; recombinant Apelin 1 μM, no other exogenous mitogen
  Activation of the Akt/mTor pathway in GSCs (Akt, S6 phosphorylation): able to activate this pathway in a similar extend than EC-CM; also recorded: triggered the activation of the mTor signalling cascade
[3]
  Activation of STAT3 signaling in GSCs: able to activate this signaling pathway
[4]; exogenous Apelin added into Apelin-depleted endothelial cell-derived media
  EC-CM-sustained self-renewal and viability of GSCs: restored
[4]; recombinant Apelin 1 μM in mitogen-free media, panel of 16 patient-derived GSCs
  GSC self-renewal (secondary neurosphere formation and Sox2/Nestin expression): sufficient to support self-renewal; also recorded: maintained
[4]; recombinant Apelin in mitogen-free media, trypan blue exclusion
  Mitogen deprivation-induced cell death: hindered
[1]
  GSC survival: has an effect on GSCs survival

## Apelin 13
[1]
  GSC survival: promote GSC survival

## Apelin 36: 36 amino acid peptide corresponding to the sequence 42-77 of the Apelin proprotein; APJ agonist (LVQPRGSRNGPGPWQGGRRKFRRQRPRLSHKGPMPF; homo sapiens; Apelin 36 aa - homo sapiens)
[1]
  GSC survival: promote GSC survival

## cyclo(1-6)CRPRLC-KH-cyclo(9-14)CRPRLC (CRPRLCKHCRPRLC; bridge 1-6, 9-14) [MM54, APJ antagonist (Macaluso N J et al., 2011), supplied by Dr. Robert Glenn]
[2]; pre-treatment 45 min prior EC-CM or Apelin (1 μmol·l^−1, 7 min), MM54 2 μmol·l^−1
  Inhibition of EC-CM- and Apelin-induced Akt/mTor activation in GSCs: blocks; also recorded: alleviated
[5]; bi-weekly intraperitoneal MM54
  GSC number in residual tumours, as scored with Nestin: decreased
  Overall cell proliferation (Ki67) and viability (TUNEL) in residual tumours: decreased
  Tumour vascularisation (PECAM): reduction
[5]; bi-weekly intraperitoneal MM54 (20 μmol·l^−1) from week 4, 7 weeks
  Tumour growth (tumour volume): capable of in vivo inhibiting tumor growth once initiated; also recorded: restrain tumor growth and expansion; also recorded: strongly hindered
[6]
  Inhibition of Apelin-mediated STAT3 activation (STAT3 reporter activity): reduced
[6]; listed as pharmacological antagonist of APJ
  Inhibition of Apelin-mediated STAT3 activation (STAT3 reporter activity): blocked
[7]
  Toxic effects of treatment: does not exert any obvious toxic effects
[8]; intracranial GSC #9, intraperitoneal MM54 thrice a week (20 μmol·l^−, 4 mg/kg) from day 16
  Neurological symptoms: significantly abolish
[8]; [9]
  Loss weight associated with tumour progression: rescue
  Overall survival of tumour-bearing mice (Kaplan-Meier): dramatically increased
[8]; intracranial GSCs, intraperitoneal MM54 thrice a week
  Tumour size: reduced
[4]; GSCs cultured with EC-CM
  Neurosphere number and size, with Sox2/Nestin: dramatically decreased
[4]; GSCs exposed to EC-CM or Apelin in presence of DMSO or MM54
  Endothelial Apelin-dependent GSC self-renewal and survival (tumoursphere formation): blocks; also recorded: impaired
